# Assays:
# [1] = test system: Isolated male Wistar rat epididymal adipocytes; assay: Glucose uptake into adipocytes (in vitro insulin-mimetic activity); format: cell-based; settings: 20 μM Zn complex, means ± SDs, three runs
# Description: The in vitro insulin-mimetic activities of Zn complexes were determined by the inhibition of FFA release from adipocytes and increase of glucose uptake into adipocytes. Isolated male Wistar rat epididymal adipocytes (1.0 × 10^6 cells/mL) were prepared and pre-incubated separately with various concentrations of the different Zn complexes in 5 mM glucose in Krebs-Ringer bicarbonate buffer (120 mM NaCl, 1.3 mM CaCl2, 1.2 mM MgSO4, 4.8 mM KCl, 1.2 mM KH2PO4, 24 mM NaHCO3, pH 7.4) containing 2% BSA, with shaking at 100 cycles/min for 30 min at 37 °C. Adrenaline (15 μL, 0.2 mM) was then added to the mixtures, and the resultant solutions were then incubated for 3 h at 37 °C. The reaction mixture was subsequently centrifuged at 650× g for 10 min at 4 °C. FFA levels in the extracellular solutions were determined using an FFA measuring kit (NEFA C-test Wako) and the IC50 value, which is the 50% inhibitory concentration of FFA-release in each complex, was calculated. Glucose concentrations in the solutions with 20 μM Zn complexes were determined using a Fuji Dry Chem system (Fuji Medical Co., Tokyo, Japan) and then the glucose uptake quantities/(1.0 × 10^6 cells) in the 20 μM Zn complexes were calculated.
# [2] = test system: type 2 diabetic ob/ob mice; assay: Daily oral treatment of ob/ob mice for 28 days: blood glucose, body weight, water intake; format: in vivo
# Description: The anti-diabetic effects of both [Zn(hmpt)2] and [Zn(hmps)2] were examined in ob/ob mice. The ob/ob and +/+ mice were used as type 2 diabetic and normal (non-diabetic) mice, respectively. The ob/ob (10-week-old) and +/+ (10-week-old) mice received daily oral treatment of either Zn complexes dissolved in PEG-400 or PEG-400 only, respectively. The mice received oral treatments of [Zn(hmpt)2] or [Zn(hmps)2] at doses of 2.5–10 mg Zn/kg or 1.0–5.0 mg Zn/kg for 28 days, respectively. Blood glucose levels (BGL) were measured using a Glucocard (Arkray, Kyoto, Japan) just before treatment with the Zn complexes, and the doses were regulated based on the BGL. Over 28 days, BGL, body weight, food intake, and water intake were measured every day. The number of normal mice (+/+ mice), control mice (ob/ob mice), [Zn(hmpt)2]-treated, and [Zn(hmps)2]-treated mice was 6, 8, 8, and 8 in the initial animal experiments, respectively. This was modified to 6, 6, 7, and 8 after the end of experiments as two control mice died naturally by the end of experiments, and one [Zn(hmpt)2]-treated mouse died from an accident during the oral glucose tolerance test.
# [3] = test system: type 2 diabetic ob/ob mice; assay: Oral glucose tolerance test (OGTT) after 28 days treatment; format: in vivo
# Description: After treatment with [Zn(hmpt)2] or [Zn(hmps)2] for 28 days, OGTTs were performed. The ob/ob mice and +/+ mice were fasted for 12-h and glucose (1 g/kg body weight) was given orally. Blood samples were obtained from the tail vein at 0, 15, 30, 45, 60, 90, and 120 min after glucose administration. Blood glucose concentrations were measured using a Glucocard.
# [4] = test system: type 2 diabetic ob/ob mice; format: in vivo
# Description: (§1) After OGTT, HbA1c levels were measured in blood obtained from the mouse tail vein using an immunoassay with a DCA 2000 analyzer (Bayer-Sankyo Co., Ltd., Tokyo, Japan). The mice were subjected to a 12-h fast and blood samples were collected from the orbital vein or postcaval vein under isoflurane anesthesia using heparinized tools. Collected samples were then centrifuged at 650× g for 10 min at 4 °C, and the resultant plasma samples were used to analyze various biochemical parameters. The levels of AST, ALT, BUN, TG, T-CHO, and ALP in plasma samples were determined using a Fuji Dry Chem system. The plasma levels of insulin and adiponectin were determined using an ultra-sensitive Mouse Insulin ELISA Kit (Morinaga Institute of Biological Science, Inc., Kanagawa, Japan) and an adiponectin immunoassay kit (R&D Systems Inc., Minneapolis, MN, USA), respectively. After collecting the blood samples, mice were subjected to dissection under isoflurane anesthesia, and the resultant tissue samples were washed in saline. Each of the samples was dehydrated for a week in desiccators, weighed, and then heated in 5% HNO3 (5 mL) for 5 h at 110 °C in a closed system. The resultant solution was centrifuged at 1250× g for 15 min, and the supernatant was diluted using 5% HNO3. Both Zn and Se concentrations in organs were determined with an ICP-MS Agilent 7700x/Mass Hunter instrument (Agilent Technologies Inc., Santa Clara, CA, USA). The Zn and Se concentrations in each sample were calculated using linear regression of the standard curves prepared from standard solutions of the respective trace elements.
# [5] = Organ distribution of Zn and Se by ICP-MS after 28 days oral treatment; format: in vivo, mice
# Description: as §1
# [6] = test system: type 2 diabetic ob/ob mice; assay: Histopathology and morphometric analysis of pancreas and liver (HE staining); format: in vivo; settings: 14-week-old mice
# Description: Excised pancreas and liver from 14-week-old mice were immediately fixed in 10% buffered formalin for a week, sectioned at a thickness of 3 μm, and stained with HE for histopathological examination. HE-stained tissue sections were scanned using a Moticam T2 (Shimadzu Co., Kyoto, Japan) to prepare digital images. Both pancreatic islet area and glycogen and fat deposition areas were calculated with the dedicated image processing software WinROOF (Mitani Corp., Tokyo, Japan).
# [7] = test system: type 2 diabetic ob/ob mice; assay: Triglyceride and glycogen contents in the liver; format: in vivo; settings: ob/ob mice after 28 days oral treatment
# Description: Lipids in the liver were extracted according to modified Folch method. TG in the extracted lipids was detected using the triglyceride E test wako (Wako Pure Chemicals Co., Osaka, Japan). Glycogen in the liver was extracted with a strong base (30% KOH aq). Then, ethanol precipitation methods (using 95% ethanol and saturated Na2SO4), hydrolysis, and neutralization (with 2.4 M HCl aq and 0.8 M NaOH aq) of the glycogen extracts were performed, resulting in degradation to glucose solution. To detect the glucose levels in the solution using the glucose CII test wako (Wako Pure Chemicals Co., Osaka, Japan), glycogen levels in the liver were estimated. Because the liver sample of normal mice was used up during TG detection and ICP-MS analysis, glycogen content in the liver could not be detected.
# [8] = test system: male Wistar rats; parameters: method as in earlier work; settings: in food 10 µg sodium selenite/kg/day (4.6 µg Se/kg/day), 3 months; cited from earlier work
compound,measurement,setting,value
"Cc1occc(=S)c1[O-].Cc1occc(=S)c1[O-].[Zn+2] [[Zn(hmpt)2], bis(3-hydroxy-2-methyl-4(H)-pyran-4-thiono)Zn]",Glucose Uptake,[1],79 ± 26 µg/10^6 Cells
same,Blood glucose level by the end of treatment,"[2]; [Zn(hmpt)2] 2.5–10 mg Zn/kg, [Zn(hmps)2] 1.0–5.0 mg Zn/kg",approximately 200 mg/dL
same,Water intake on the final day,"[2]; control 12.6 ± 1.6 g, p < 0.01 vs. control",7.5 ± 2.5 g
same,Body weight change during treatment,"[2]; loss seen day 22 to 25, recovered after dose reduction",body weight loss
same,Area under the blood glucose concentration-time curve (AUC) in OGTT,"[3]; 1 g glucose/kg oral, after 28 days treatment, compared with control mice",significantly decreased
same,Fasting blood glucose level (0 min of OGTT),"[3]; ob/ob mice after 28 days oral treatment, 12-h fast, control 237 ± 52 mg/dL",143 ± 75 mg/dL
same,ALP (plasma),"[4]; mouse, in vivo, po",360 ± 88 U/L
same,ALT (plasma),"[4]; mouse, in vivo, po",118 ± 68 U/L
same,AST (plasma),"[4]; mouse, in vivo, po",103 ± 25 U/L
same,BUN (plasma),"[4]; mouse, in vivo, po","23 ± 2 **^,## mg/dL"
same,Insulin (fasting plasma),"[4]; ob/ob mice after 28 days oral treatment, control 2.2 ± 1.0",0.9 ± 0.3 ng/mL
same,HbA1c,"[4]; ob/ob mice after 28 days oral treatment, control 7.9 ± 0.8","6.5 ± 0.7 **^,## %"
same,Adiponectin (plasma),"[4]; ob/ob mice after 28 days oral treatment, control 8.2 ± 1.1",9.4 ± 0.8 µg/mL
same,TG (plasma),"[4]; ob/ob mice after 28 days oral treatment, control 83 ± 16",76 ± 25 mg/dL
same,T-CHO (plasma),"[4]; ob/ob mice after 28 days oral treatment, control 195 ± 16",189 ± 42 mg/dL
same,"Se concentration, kidney","[5]; dry tissue, ob/ob mice after 28 days oral treatment, control 6.4 ± 0.2",5.8 ± 0.5 µg/g
same,"Zn concentration, kidney","[5]; dry tissue, ob/ob mice after 28 days oral treatment, control 67 ± 3",73 ± 4 µg/g
same,"Δ[Zn], bone","[5]; mouse, in vivo, po",517 nmol/g
same,"Δ[Zn], kidney","[5]; mouse, in vivo, po",86 nmol/g
same,"Δ[Zn], liver","[5]; mouse, in vivo, po",453 nmol/g
same,"Δ[Zn], pancreas","[5]; mouse, in vivo, po",302 nmol/g
same,"Δ[Zn], plasma","[5]; mouse, in vivo, po",3 nmol/g
same,Pancreatic islet numbers per section,"[6]; among normal, control and treated mice",not significantly changed
same,Glycogen and fat deposition area ratio in the liver,[6]; between control and treated mice,no significant differences
same,Pancreatic islet area ratio and size,[6]; compared with normal mice,significantly increased
same,Glycogen content in the liver,[7]; control 0.08 ± 0.04,0.03 ± 0.01 mg/g liver
same,TG content in the liver,[7]; control 437 ± 139,309 ± 134 mg/g liver
O=[Se]([O-])[O-].[Na+].[Na+] [sodium selenite],Hepatic histology finding,[8],necrotic areas in hepatic sections were observed
